Source: PubChem BioAssay (NCI)
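Exposure lasted 48 hours, with cells grown in 96-well plates and compounds tested at five concentrations. GI50 marks 50% less growth. TGI: concentration producing complete growth inhibition.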

Tests used:
Assay in all cases: NCI tumour cell line growth inhibition, 48 h
SW-620 colon = tested on: SW-620 colon
RPMI-8226 leukemia = tested on: RPMI-8226 leukemia
BT-549 breast = tested on: BT-549 breast
SF-268 CNS = tested on: SF-268 CNS
NCI-H460 lung = tested on: NCI-H460 lung
SF-539 CNS = tested on: SF-539 CNS
NCI-H23 lung = tested on: NCI-H23 lung
UO-31 renal = tested on: UO-31 renal
K-562 leukemia = tested on: K-562 leukemia
IGROV1 ovarian = tested on: IGROV1 ovarian

SMILES	GI50 (SW-620 colon) [µM]	TGI (SW-620 colon) [µM]	GI50 (RPMI-8226 leukemia) [µM]	TGI (RPMI-8226 leukemia) [µM]	GI50 (BT-549 breast) [µM]	TGI (BT-549 breast) [µM]	GI50 (SF-268 CNS) [µM]	TGI (SF-268 CNS) [µM]	GI50 (NCI-H460 lung) [µM]	TGI (NCI-H460 lung) [µM]	GI50 (SF-539 CNS) [µM]	TGI (SF-539 CNS) [µM]	GI50 (NCI-H23 lung) [µM]	TGI (NCI-H23 lung) [µM]	GI50 (UO-31 renal) [µM]	TGI (UO-31 renal) [µM]	GI50 (K-562 leukemia) [µM]	TGI (K-562 leukemia) [µM]	TGI (IGROV1 ovarian) [µM]	GI50 (IGROV1 ovarian) [µM]
CSC1=Nc2c(c(C)c(C)n2COC(CO)CO)C2=NC(=O)CN12	> 100	> 100	> 100	> 100	> 100	> 100	> 100	> 100	> 100	> 100	> 100	> 100	> 100	> 100	> 100	> 100	> 100	> 100	–	–
Cc1ccc(S(=O)(=O)OCC/C(=C\[Si](C)(C)C)c2ccccc2)cc1	–	> 100	–	> 100	–	–	–	> 100	–	> 100	–	> 100	–	> 100	–	> 100	–	> 100	> 100	–
COC(=O)CCC(NC(=S)N/N=C/c1cccs1)C(=O)OC (stereo not drawn)	–	> 100	–	–	–	–	–	> 100	–	> 100	–	> 100	–	> 100	–	> 100	–	> 100	> 100	–
COc1cc2oc(-c3ccc(O)cc3)cc(=O)c2c(O)c1C1OC(CO)C(O)C(O)C1O (stereo not drawn)	–	> 100	–	> 100	–	–	–	> 100	–	> 100	–	> 100	–	> 100	–	> 100	–	> 100	> 100	–
O=C(NC12CC3CCC1CC(C3)C2)[C@@H]1CCCN1C(=O)OCc1ccccc1 (stereo partly drawn)	–	> 100	–	> 100	–	–	–	> 100	–	–	–	> 100	–	> 100	–	> 100	–	> 100	> 100	–
COc1nc2c(c(O)c(C)c(=O)n2OC2OCC(OC(C)=O)C(OC(C)=O)C2OC(C)=O)c(=O)n1C (stereo not drawn)	–	> 100	–	–	–	–	–	> 100	–	> 100	–	> 100	–	> 100	–	> 100	–	> 100	> 100	–
O=c1cc(O)cc2n1CCC2	–	> 100	–	> 100	–	–	–	> 100	–	> 100	–	> 100	–	–	–	> 100	–	> 100	> 100	–
O=[N+]([O-])c1cccc(C2=NN(c3ccccc3)C3c4cc(Br)ccc4OCC23)c1 (stereo not drawn)	–	> 100	–	> 100	–	–	–	> 100	–	> 100	–	> 100	–	> 100	–	> 100	–	> 100	> 100	–
N#C/C(=C\c1cc(OCc2ccccc2)c(OCc2ccccc2)cn1)C(N)=O	–	> 100	–	> 100	–	–	–	> 100	–	> 100	–	> 100	–	> 100	–	> 100	–	> 100	> 100	–
CCOC(=O)c1nc(C)oc1C(F)(F)F	–	> 100	–	–	–	–	–	> 100	–	> 100	–	> 100	–	> 100	–	> 100	–	> 100	> 100	–
CCN(CC)Cc1cc(Nc2nc(NC3CCC(N(C)C)CC3)c3ccccc3n2)ccc1OC (stereo not drawn)	3.18	13.3	2.34	6.63	–	–	5.35	20.4	5.18	17.6	3.3	13.3	6.9	21.9	12.2	27.2	1.98	5.23	34.3	12.8
COc1ccc(OC)c(/C=C/c2nc(=S)n(-c3ccc(Cl)cc3)[nH]2)c1	5.09	> 100	5.22	> 100	9.38	> 100	17.5	> 100	4.53	> 100	4.05	97.9	5.88	> 100	–	–	4.95	> 100	> 100	4.38
O=C1[C@@H]2C(c3c(Cl)cccc3Cl)=NO[C@@H]2C(=O)N1c1ccc(Cc2ccc(N3C(=O)[C@H]4C(c5c(Cl)cccc5Cl)=NO[C@H]4C3=O)cc2)cc1	–	> 100	–	> 100	–	–	–	> 100	–	> 100	–	> 100	–	> 100	–	> 100	–	> 100	> 100	–
O=[N+]([O-])c1ccc(Cl)c2c([N+](=O)[O-])cccc12	–	> 10	–	> 10	–	–	–	> 10	–	–	–	5.91	–	> 10	–	–	–	> 10	> 10	–
CCc1cccc(C)c1NC(=O)CCc1nc(=S)[nH][nH]1	–	> 100	–	> 100	–	–	–	> 100	–	> 100	–	> 100	–	> 100	–	> 100	–	> 100	> 100	–
O=C(NC1C(=O)NNC1c1cccc([N+](=O)[O-])c1)c1ccccc1 (stereo not drawn)	–	> 100	–	> 100	–	–	–	> 100	–	> 100	–	–	–	> 100	–	> 100	–	–	> 100	–
CCCCCCCC(=O)OCC(COC(=O)C(C)(C)C)OC(=O)Cc1ccccc1 (stereo not drawn)	–	> 100	–	> 100	–	–	–	> 100	–	> 100	–	–	–	> 100	–	> 100	–	> 100	> 100	–
O=[N+]([O-])c1ccccc1C1SCc2nc3ccccc3n21 (stereo not drawn)	–	> 100	–	–	–	–	–	> 100	–	> 100	–	> 100	–	> 100	–	> 100	–	> 100	> 100	–
CCCCCCCCCCCC[N+]1(CCCCCCCCCCCC)CCCC(C)C1 (stereo not drawn)	0.303	1.33	–	–	0.817	3.25	0.293	1.25	–	–	–	–	0.113	0.399	–	–	–	–	–	–
O=C(Nc1ccc(N=C=S)cc1Cl)c1cc(Br)cc(Br)c1O	–	72.3	–	–	–	–	–	> 100	–	> 100	–	54.6	–	55.2	–	> 100	–	97.1	39.8	–
Cc1nc2ccccc2nc1CC(=O)C(=O)Nc1ccc(Cl)cc1Cl	–	> 100	–	> 100	–	–	–	> 100	–	> 100	–	> 100	–	> 100	–	> 100	–	> 100	> 100	–
